# Experimental data from patent publication US20240189263A1, “DERIVATIZED C60 MOLECULES AND METHODS AND MATERIALS FOR USING DERIVATIZED C60 MOLECULES TO REDUCE RADIATION INJURY” (Mayo Foundation for Medical Education and Research, priority 2021, published 2024).
# Tests used:
# [1] = Zeta-potential of C60-ser aggregates; type: physicochemical; conditions: 0.1 mg/mL and 10 mg/mL in deionized water
# Procedure: Analysis was performed using a ZEN 3600 Malvern Zetasizer (Worcestershire, UK) equipped with a 633 nm laser. The electrophoretic mobilities (p) of the aggregates was measured by applying an electric field to the C60-ser solution and measuring the speed and direction of the aggregate's motion. Zeta-potentials were calculated using the solvent viscosity (n) and the water dielectric constant (e). To perform the measurements, C60-ser molecules were dissolved in deionized water, and the solution electrical conductivity was adjusted to 25-50 μS/cm by addition of small amounts of neutral 2-(N-morpholino)ethanesulfonic acid (MES) buffer. The zeta-potential of C60-ser aggregates was measured at a concentration of 0.1 mg/mL in deionized water (FIG. 5A) and 10 mg/mL in deionized water (FIG. 5B).
# NIH3T3 cells [2] = assay: ROS by H2-DCFDA probe after proton irradiation, NIH3T3; type: cell-based; conditions: NIH3T3, pretreated 100 μM, TBHP 200 μM, 1 Gy proton, read 30 minutes post radiation
# Excerpt: Cell lines were irradiated using pencil beam scanning (PBS) proton beams produced by IBA ProteusOne (Ion Beam Applications, Louvain-la-Neuve, Belgium). Single layer mono-energy 227 MeV pencil beams with uniform spacing of 0.25 cm between each spot were used to create a large field size with uniform dose distribution (±2%) that encompassed all sample wells containing the cells. A fixed source to surface distance (SSD) setup and gantry at 180 degrees was used to delivery 0.5, 1, 2, 4, and 6 Gray (Gy) dose of ionizing radiation to cells. The cells were place at an 8 cm depth, with a linear energy transfer (LET) of approximately 1.7 keV/μm, using solid water slabs as a buildup. […] The monitor units needed to deliver the intended dose were calculated using the measure dose/MU values.
# Post radiation, 2′,7′-dichlorodihydrofluorescein diacetate (H2-DCFDA) probes were used to measure the level of reactive oxygen species (ROS) post-proton radiation (1 Gy, 230 MeV proton beam). […] A fluorescence microplate reader (SpectraMax M5, Molecular Devices Corporation, California, USA) was used to detect the generation of fluorescent DCF molecules with an excitation filter of 485 nm and an emission filter of 525 nm, with a 515 nm cutoff filter. […] Following irradiation, the cells were transported back for plate reading, 30 minutes post radiation.
# NIH3T3 cells [3] = assay: DNA damage, γH2AX foci immunofluorescence, NIH3T3; type: cell-based
# Procedure: To test the ability of C60-ser to protect against radiation injury, the level of DNA damage in response to radiation was analyzed by measuring γH2AX. The H2AX protein becomes phosphorylated into γH2AX as a result of DNA double strand breaks. This allows for the visualization and quantification of double strand break foci through immunofluorescence analysis. Cells were plated on 8 chamber slides and incubated overnight before C60-ser treatment. Three sets of slides per cell line (to be irradiated with 0, 0.5, and 1 Gy) were prepared, with the top 4 rows used as a control and the bottom 4 rows incubated with 100 μM C60-ser. Cells were incubated with C60-ser for 2 hours before irradiation with a clinical Proteus One proton machine (Ion Beam Applications, Louvain-la-Neuve, Belgium). A 230 MeV mono-energetic unmodulated broad beam of large field size that encompassed all slides containing the cells was used to deliver the 0.5 and 1 Gy doses. White solid water slabs (IBA Dosimetry, Germany) provided the necessary phantom material to place the cells at the desired 8 cm depth with an LET of approximately 1.7 keV/μm. After irradiation, cells were incubated at 37° C. with 5% CO2 for 30 minutes before washing and fixing the cells with 1% formaldehyde. The cells were permeabilized with 1% NP-40 and incubated with 5% BSA to block unspecific antibody bonding. The cells were then incubated with γH2AX primary antibody followed by a secondary antibody. Mounting media containing DAPI was used before applying cover slips and sealing the samples. Cells were imaged on an Olympus IX71 trinocular inverted fluorescence phase contrast microscope with a 40× objective. The resulting images were analyzed by ImageJ, and the foci were counted.
# HUVEC cells = assay: Seahorse mitochondrial respiration (oxygen consumption rate), HUVEC; type: cell-based; conditions: pretreated 2 hours before 1 Gy 230 MeV proton
# Procedure: (§1) The oxygen consumption rates were assessed in N2A, HUVEC, NIH3T3, and HepG2 cell lines with a Seahorse XFe96 (Agilent Technologies, Santa Clara, CA, USA). Cells were treated with 0 and 1 Gy of 230 MeV proton irradiation. The control plates were run at about the same time post plating. Each cell line was optimized prior to these experiments, and data was presented normalized to cell number plated. The standard mitochondrial stress test was performed using serial injections of oligomycin (1.5 μM), carbonyl cyanide p-(trifluoromethoxy)phenylhydrazone (FCCP, 1 μM), and rotenone/antimycin A mixture (0.5 μM). After injection of oligomycin, which inhibits ATP synthase (complex V), there was a drop in electron flow through the electron transport chain (ETC) and a resultant drop in oxygen consumption rate (OCR) of the cells. Injection of FCCP collapsed the proton gradient and allowed for uninhibited electron flow through the ETC supercomplexes. […] The reserve respiratory capacity was calculated by subtracting the basal respiratory capacity from the maximal respiratory capacity.
# NIH3T3 cells [4] = assay: Seahorse mitochondrial respiration (oxygen consumption rate), NIH3T3; type: cell-based; conditions: NIH3T3, pretreated 2 hours before 1 Gy 230 MeV proton
# Procedure: as §1
compound,measurement,setting,value
"O=C(NC(CO)CO)C1(C(=O)NC(CO)CO)C23c4c5c6c7c8c4-c4c2c2c9c%10c4C4%11c%12c-%10c%10c%13c%14c%12-c%12c(c-7c7c%15c%12C%14%12C(C(=O)NC(CO)CO)(C(=O)NC(CO)CO)C%12%14c%12c%16c%17c%18c(c%12-%15)C7%12C(C(=O)NC(CO)CO)(C(=O)NC(CO)CO)C6%12c6c-5c5c7c(c6-%18)C%176C(C(=O)NC(CO)CO)(C(=O)NC(CO)CO)C6%12c6c-7c(c-2c2c6-c6c%12c-%16c%14c-%13c6C%106C(C(=O)NC(CO)CO)(C(=O)NC(CO)CO)C926)C513)C84C%11(C(=O)NC(CO)CO)C(=O)NC(CO)CO (stereo not shown) [C60-ser, C60-serinol]",zeta-potentials of aggregates,[1],close to zero
same,ROS (H2-DCFDA fluorescence),NIH3T3 cells [2],significant reduction in ROS
same,γH2AX foci vs control,"NIH3T3 cells [3]; NIH3T3, 100 μM 2 hours before 0.5 Gy proton radiation","trend towards reduction in total foci formed, but it was not statistically significant"
same,γH2AX foci vs control,"NIH3T3 cells [3]; NIH3T3, 100 μM 2 hours before 1 Gy proton radiation",significant decrease in the number of foci
same,γH2AX foci vs control,"NIH3T3 cells [3]; NIH3T3, 100 μM 2 hours, absence of radiation",no significant different in foci expression
same,radiation-induced increase in respiratory capacity,HUVEC cells,"dampened and, in some cases, reduced to normal or slightly below normal levels"
same,radiation-induced increase in respiratory capacity,NIH3T3 cells [4],"dampened and, in some cases, reduced to normal or slightly below normal levels"
